# Results: ChEMBL document CHEMBL2074073, “The organic cation transporter OCT2 mediates the uptake of beta-adrenoceptor antagonists across the apical membrane of renal LLC-PK(1) cell monolayers” (Br J Pharmacol, 2000)
# T1: Solute carrier family 22 member 2 (Homo sapiens, UniProt O15244)
# T1 sequence (O15244 whole entry): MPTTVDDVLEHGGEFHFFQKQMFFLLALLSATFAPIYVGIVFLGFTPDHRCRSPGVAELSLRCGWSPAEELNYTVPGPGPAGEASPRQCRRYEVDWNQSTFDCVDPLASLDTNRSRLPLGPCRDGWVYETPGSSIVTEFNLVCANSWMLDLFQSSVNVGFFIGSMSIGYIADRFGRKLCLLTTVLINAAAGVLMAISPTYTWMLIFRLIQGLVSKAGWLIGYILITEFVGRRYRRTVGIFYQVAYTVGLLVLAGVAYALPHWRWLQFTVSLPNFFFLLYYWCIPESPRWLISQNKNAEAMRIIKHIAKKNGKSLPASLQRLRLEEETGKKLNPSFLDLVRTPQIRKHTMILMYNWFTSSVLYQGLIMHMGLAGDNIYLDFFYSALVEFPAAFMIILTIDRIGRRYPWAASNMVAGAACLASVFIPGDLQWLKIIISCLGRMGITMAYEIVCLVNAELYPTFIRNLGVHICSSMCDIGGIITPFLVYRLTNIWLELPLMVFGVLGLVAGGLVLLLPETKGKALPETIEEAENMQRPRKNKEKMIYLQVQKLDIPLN
# Tests used:
# Format in all cases: functional, cell-based
# [1] = target: T1, Solute carrier family 22 member 2; experiment: (§1) TP_TRANSPORTER: uptake in OCT2-expressing mIMCD3 cells; details: mouse
# [2] = target: T1, Solute carrier family 22 member 2; experiment: TP_TRANSPORTER: inhibition of cimetidine uptake (Cimetidine: 100 uM, Propranolol: 1000 uM) in OCT2-expressing mIMCD3 cells; details: mouse, mimcd3, 1000 µM
# [3] = target: T1, Solute carrier family 22 member 2; experiment: TP_TRANSPORTER: inhibition of cimetidine uptake (Cimetidine: 100 uM, Metoprolol: 1000 uM) in OCT2-expressing mIMCD3 cells; details: mouse, mimcd3, 1000 µM
# [4] = substrate: C[n+]1ccc(-c2ccccc2)cc1; experiment: as §1
molecule,measurement,setting,value
CC(C)NCC(O)COc1cccc2ccccc12 (stereo not given) [PROPRANOLOL],Activity,[1],substrate [+]
same,Activity,[2],inhibitor [(at a rough estimate) 10 % of control]
COCCc1ccc(OCC(O)CNC(C)C)cc1 (stereo not given) [METOPROLOL],Activity,[3],inhibitor [(at a rough estimate) 30 % of control]
CN/C(=N/CCSCc1nc[nH]c1C)NC#N [CIMETIDINE],Activity,[1],substrate [+]
Solute carrier family 22 member 2 (Homo sapiens) (protein) MPTTVDDVLEHGGEFHFFQKQMFFLLALLSATFAPIYVGIVFLGFTPDHRCRSPGVAELSLRCGWSPAEELNYTVPGPGPAGEASPRQCRRYEVDWNQSTFDCVDPLASLDTNRSRLPLGPCRDGWVYETPGSSIVTEFNLVCANSWMLDLFQSSVNVGFFIGSMSIGYIADRFGRKLCLLTTVLINAAAGVLMAISPTYTWMLIFRLIQGLVSKAGWLIGYILITEFVGRRYRRTVGIFYQVAYTVGLLVLAGVAYALPHWRWLQFTVSLPNFFFLLYYWCIPESPRWLISQNKNAEAMRIIKHIAKKNGKSLPASLQRLRLEEETGKKLNPSFLDLVRTPQIRKHTMILMYNWFTSSVLYQGLIMHMGLAGDNIYLDFFYSALVEFPAAFMIILTIDRIGRRYPWAASNMVAGAACLASVFIPGDLQWLKIIISCLGRMGITMAYEIVCLVNAELYPTFIRNLGVHICSSMCDIGGIITPFLVYRLTNIWLELPLMVFGVLGLVAGGLVLLLPETKGKALPETIEEAENMQRPRKNKEKMIYLQVQKLDIPLN,Km,[4],22.2 µM
